Patent US20240299698A1, “PREVENTION AND TREATMENT OF POST-OPERATIVE COGNITIVE DYSFUNCTION (POCD)” (Noetix Pharma LLC, priority 2022, published 2024)

System: mouse model of (POCD)
Assay: Novel object recognition testing in laparotomy mouse model of POCD
Format: in vivo, Male C57BI/6 mice
Settings: for novel object preference, 24-hour (long term) testing: PSD6
From the text: To induce POCD, mice were anesthetized with isoflurane and maintained at a surgical plane of anesthesia (2-2.5%). The abdomen was shaved and cleaned/disinfected with both betadine and ethanol (70%). A 1.5 cm vertical incision was made along the midline of the abdomen, perforating the skin and the peritoneal cavity. A sterile blunt probe was inserted into the cavity, and the abdominal viscera and musculature were manipulated for five minutes. Abdominal muscles and skin were sutured, polysporin and topical lidocaine were applied to the incision site, and buprenorphine (0.1 mg/kg s.c.) was administered. Animals were placed into a clean, pre-warmed home cage for recovery and housed singly thereafter.
Novel object recognition (NOR) is a tool used to assess the ability of mice to differentiate between familiar and novel objects (i.e., recognition memory). The paradigm relies on the tendency of rodents to interact more with a novel object than a familiar one. In this task, acclimation to the test arena was provided on the day prior to training (PSD4) and the initial test trial (short-term recall), presented one hour following training on PSD5. The second test trial (long-term recall) was performed 24 hours later (PSD6). Object recognition may be determined through evaluation of the percent time spent exploring a novel object relative to the total time spent exploring both novel and familiar objects; normal animals will spend more time exploring a novel object. If the exploration of both objects is the same, this behavior can be a sign of a recognition memory deficit.
The acclimation process was as follows: 1. The animal was brought into the testing room in a transfer cage. 2. Video recording was begun and the animal's ID card was recorded. 3. The mouse was placed in the center of the arena and allowed to explore freely for 5 minutes. 4. The mouse was returned to its home cage.
The paired object training process was as follows: 1. The animal was brought into the testing room in a transfer cage. 2. Video recording was begun and the animal's ID card was recorded. 3. The mouse was placed in the center of the arena and allowed to explore freely for 10 minutes. 4. The mouse was returned to its home cage.
The novel object (1 hour) test was performed as follows: 1. The arena was prepared with one original object (block) and one novel object (ball) present. 2. The animal was brought into the testing room in a transfer cage. 3. Video recording was begun and the animal's ID card was recorded. 4. The mouse was placed in the center of the arena and allowed to explore for 10 minutes. 5. The mouse was returned to its home cage.
The novel object (24 hour) test was performed as follows: 1. The arena was prepared with one original object (block) and one novel object (dome) present. 2. The animal was brought into the testing room in a transfer cage. 3. Video recording was begun and the animal's ID card was recorded. 4. The mouse was placed in the center of the arena and allowed to explore for 10 minutes. 5. The mouse was returned to its home cage.

Cc1ccc(=O)n(-c2ccccc2)c1 [pirfenidone, 5-methyl-1-phenyl-2-(1H)-pyridone]
preference index, within-group 1-hour vs 24-hour (Acute, p=0.762, paired t-test (statistically equivalent)): retained memory for the familiar object | preference index, within-group 1-hour vs 24-hour (Chronic, p=0.828, paired t-test (statistically equivalent)): retained memory for the familiar object | total object exploration time, 1 hour test compared with training (PSD5, Acute, p=0.01, within group paired t-test): decrease in total time spent interacting with objects | total object exploration time, 1 hour test compared with training (PSD5, Chronic, p=0.04, within group paired t-test): decrease in total time spent interacting with objects | novel object preference, 1-hour (short term) testing, between groups (PSD5, all treatment groups, p=0.376, one-way ANOVA): no main effect for treatment | novel object preference, 24-hour (long term) testing (Acute vs Disease Controls, p=0.08, LSD post-hoc): trend toward increased preference | novel object preference, 24-hour (long term) testing (Chronic vs Disease Controls, p=0.09, LSD post-hoc): trend toward increased preference
